Biological target: T1, Human complement C1s enzyme (Homo sapiens, UniProt P09871)
T1 sequence (P09871 438-688 limits assumed): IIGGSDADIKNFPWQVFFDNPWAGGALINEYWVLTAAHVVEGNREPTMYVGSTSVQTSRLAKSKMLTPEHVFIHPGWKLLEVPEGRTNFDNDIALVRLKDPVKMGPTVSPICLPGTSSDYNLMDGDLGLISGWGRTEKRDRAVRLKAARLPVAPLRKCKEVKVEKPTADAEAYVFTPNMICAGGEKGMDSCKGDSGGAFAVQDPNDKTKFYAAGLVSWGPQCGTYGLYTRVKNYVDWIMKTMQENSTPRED
T1 sequence (P09871 16-437 partner limits assumed): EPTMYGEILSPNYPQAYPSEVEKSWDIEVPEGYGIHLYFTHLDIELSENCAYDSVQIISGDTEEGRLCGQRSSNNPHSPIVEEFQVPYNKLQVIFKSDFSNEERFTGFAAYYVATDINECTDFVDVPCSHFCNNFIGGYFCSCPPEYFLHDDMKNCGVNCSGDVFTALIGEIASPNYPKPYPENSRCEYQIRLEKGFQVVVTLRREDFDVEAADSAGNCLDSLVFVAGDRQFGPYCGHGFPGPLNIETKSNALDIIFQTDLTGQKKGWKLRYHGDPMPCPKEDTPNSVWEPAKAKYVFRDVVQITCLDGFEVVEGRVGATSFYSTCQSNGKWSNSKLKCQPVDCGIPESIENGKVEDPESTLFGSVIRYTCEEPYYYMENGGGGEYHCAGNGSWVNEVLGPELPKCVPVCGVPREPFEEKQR
Assay: Human C1s enzyme assay
Assay type: biochemical
Conditions: human complement C1s enzyme 1.16 nM, substrate Z-L-Lys-SBzl 100 μM, 5 min preincubation; read-out: IC50 (Stars), C1s Inhibiting Activity
Method: Other standard complement assays are also available.
Human complement C1s enzyme (purified from human serum, Complement Technology, Inc.) at 1.16 nM final concentration was incubated with test compound at various concentrations for 5 min at room temperature in 50 mM Tris, 1 M NaCl, pH 7.5. A synthetic substrate Z-L-Lys-SBzl and DTNB (Ellman's reagent) were added to final concentrations of 100 μM each. Absorbance at 405 nm (A405) was recorded at 30 second intervals for 30 min using a microplate spectrophotometer. IC50 values were calculated by nonlinear regression of complement C1 s reaction rates as a function of test compound concentration.
ND indicates a compound for which the IC50 value is not determined.

Structure (SMILES)	IC50
C[C@@H](NC(=O)[C@@H]1CC2(CN1C(=O)CN1Cc3cc(-c4ccc(F)cc4)ccc3C1=O)OCCO2)c1cc2cnccc2[nH]1 [Compound 123, (S)-N-((R)-1-(1H-pyrrolo[3,2-c]pyridin-2-yl)ethyl)-7-(2-(5-(4-fluorophenyl)-1-oxoisoindolin-2-yl)acetyl)-1,4-dioxa-7-azaspiro[4.4]nonane-8-carboxamide]	100 to 1000 nM
O=C(NCC(=O)N1C[C@H](OC(F)F)C[C@H]1C(=O)NCc1cc2cnccc2[nH]1)c1cccc(Oc2cc(F)ccc2F)c1 [Compound 295, (2S,4R)-N-((1H-pyrrolo[3,2-c]pyridin-2-yl)methyl)-4-(difluoromethoxy)-1-((3-(2,5-difluorophenoxy)benzoyl)glycyl) pyrrolidine-2-carboxamide]	< 100 nM
C[C@@]12C[C@@H]1N(C(=O)CNC(=O)CCCOc1ccccc1)[C@H](C(=O)NC1CN(C(=O)[C@H]3CNCCN3)C1)C2 [Compound 296, (1S,3S,5S)-5-methyl-2-((4-phenoxybutanoyl)glycyl)-N-(1-((R)-piperazine-2-carbonyl)azetidin-3-yl)-2-azabicyclo[3.1.0]hexane-3-carboxamide]	> 1000 nM
O=C(NCC(=O)N1CC2(C[C@H]1C(=O)NCc1cc3cnccc3[nH]1)OCCO2)c1ccc(Oc2ccc(Cl)c(Cl)c2)o1 [Compound 287, (S)-N-((1H-pyrrolo[3,2-c]pyridin-2-yl)methyl)-7-((5-(3,4-dichlorophenoxy)furan-2-carbonyl)glycyl)-1,4-dioxa-7-azaspiro[4.4]nonane-8-carboxamide]	< 100 nM
Cc1ccc(-c2ccc(C(=O)NCC(=O)N3CC4(C[C@H]3C(=O)NCc3cc5cnccc5[nH]3)OCCO4)cc2)s1 [Compound 297, (S)-N-((1H-pyrrolo[3,2-c]pyridin-2-yl)methyl)-7-((4-(5-methylthiophen-2-yl)benzoyl)glycyl)-1,4-dioxa-7-azaspiro[4.4]nonane-8-carboxamide]	< 100 nM
O=C(NCC(=O)N1C[C@H](OC(F)F)C[C@H]1C(=O)NCc1ccc2c(c1)CCN2)c1ccc2c(c1)Oc1ccccc1S2 [Compound 197, (2S,4R)-4-(difluoromethoxy)-N-(indolin-5-ylmethyl)-1-((phenoxathiine-3-carbonyl)glycyl)pyrrolidine-2-carboxamide]	> 1000 nM
O=C(NCC(=O)N1C[C@H](OC(F)F)C[C@H]1C(=O)NCc1cc2c(s1)CCNC2)c1ccc2c(c1)Oc1ccccc1S2 [Compound 313, (2S,4R)-4-(difluoromethoxy)-1-((phenoxathiine-3-carbonyl)glycyl)-N-((4,5,6,7-tetrahydrothieno[3,2-c]pyridin-2-yl)methyl)pyrrolidine-2-carboxamide]	< 100 nM
C[C@@H](NC(=O)[C@@H]1C[C@@H](OC(F)F)CN1C(=O)CNC(=O)c1ccc2c(c1)-c1ccccc1C2(F)F)c1cc2cnccc2s1 [Compound 207, (2S,4R)-1-((9,9-difluoro-9H-fluorene-3-carbonyl)glycyl)-4-(difluoromethoxy)-N-((R)-1-(thieno[3,2-c]pyridin-2-yl)ethyl)pyrrolidine-2-carboxamide]	> 1000 nM
O=C(NCC(=O)N1CC2(C[C@H]1C(=O)NCc1cc3cnccc3[nH]1)OCCO2)c1ccc(C(=O)c2ccccc2)cc1 [Compound 33, (S)-N-((1H-pyrrolo[3,2-c]pyridin-2-yl)methyl)-7-((4-benzoylbenzoyl)glycyl)-1,4-dioxa-7-azaspiro[4.4]nonane-8-carboxamide]	< 100 nM
CC1(O)c2ccccc2-c2cc(C(=O)NCC(=O)N3C[C@H](OC(F)F)C[C@H]3C(=O)NCc3cc4cnccc4[nH]3)ccc21 (stereo partly drawn) [Compound 314, (2S,4R)-N-((1H-pyrrolo[3,2-c]pyridin-2-yl)methyl)-4-(difluoromethoxy)-1-((9-hydroxy-9-methyl-9H-fluorene-3-carbonyl)glycyl) pyrrolidine-2-carboxamide]	< 100 nM
C[C@@H](NC(=O)C1CSCN1C(=O)CNC(=O)c1ccc2c(c1)Oc1ccccc1S2)c1cc2cnccc2[nH]1 (stereo partly drawn) [Compound 289, N-((R)-1-(1H-pyrrolo[3,2-c]pyridin-2-yl)ethyl)-3-((phenoxathiine-3-carbonyl)glycyl)thiazolidine-4-carboxamide]	< 100 nM
C[C@@]12C[C@@H]1N(C(=O)CNC(=O)c1ccc(Oc3ccc(C(F)(F)F)cc3)cc1)[C@H](C(=O)NCc1cc3cnccc3[nH]1)C2 [Compound 139, (1S,3S,5S)-N-((1H-pyrrolo[3,2-c]pyridin-2-yl)methyl)-5-methyl-2-((4-(4-(trifluoromethyl)phenoxy)benzoyl)glycyl)-2-azabicyclo[3.1.0]hexane-3-carboxamide]	100 to 1000 nM
COC[C@@]12C[C@@H]1N(C(=O)CNC(=O)c1ccc3c(c1)Oc1ccccc1S3)[C@H](C(=O)N[C@H](C)c1cc3cnccc3[nH]1)C2 [Compound 191, (1S,3S,5R)-N-((R)-1-(1H-pyrrolo[3,2-c]pyridin-2-yl)ethyl)-5-(methoxymethyl)-2-((phenoxathiine-3-carbonyl)glycyl)-2-azabicyclo[3.1.0]hexane-3-carboxamide]	< 100 nM
O=C(NCC(=O)N1CC2(C[C@H]1C(=O)NCc1cc3ccccc3[nH]1)OCCO2)c1ccc(Oc2ccccc2)cc1 [Compound 11, (S)-N-((1H-indol-2-yl)methyl)-7-((4-phenoxybenzoyl)glycyl)-1,4-dioxa-7-azaspiro[4.4]nonane-8-carboxamide]	> 1000 nM
CC(NC(=O)[C@@H]1CC2(CN1C(=O)CNC(=O)c1ccc3c(c1)Oc1ccccc1S3)OCCO2)c1cc2cnccc2[nH]1 (stereo in doubt) [Compound 102, (S)-N-((S)-1-(1H-pyrrolo[3,2-c]pyridin-2-yl)ethyl)-7-((phenoxathiine-3-carbonyl)glycyl)-1,4-dioxa-7-azaspiro[4.4]nonane-8-carboxamide]	< 100 nM
C[C@@]12C[C@@H]1N(C(=O)CNC(=O)c1cccc(Oc3ccccc3)c1)[C@H](C(=O)NCc1cc3cnccc3[nH]1)C2 [Compound 152, (1S,3S,5S)-N-((1H-pyrrolo[3,2-c]pyridin-2-yl)methyl)-5-methyl-2-((3-phenoxybenzoyl)glycyl)-2-azabicyclo[3.1.0]hexane-3-carboxamide]	< 100 nM
CS(=O)(=O)[C@@H]1C[C@@H](C(=O)N[C@H](CO)c2cc3cnccc3[nH]2)N(C(=O)CNC(=O)c2ccc3c(c2)-c2ccccc2C3(F)F)C1 [Compound 104, (2S,4R)-1-((9,9-difluoro-9H-fluorene-3-carbonyl)glycyl)-N-((S)-2-hydroxy-1-(1H-pyrrolo[3,2-c]pyridin-2-yl)ethyl)-4-(methylsulfonyl) pyrrolidine-2-carboxamide]	100 to 1000 nM
O=C(NCC(=O)N1C[C@H](OC(F)F)C[C@H]1C(=O)NCc1cc2cnccc2[nH]1)c1ccc2c(c1)Oc1ccccc1S2 [Compound 36, (2S,4R)-N-((1H-pyrrolo[3,2-c]pyridin-2-yl)methyl)-4-(difluoromethoxy)-1-((phenoxathiine-3-carbonyl)glycyl)pyrrolidine-2-carboxamide]	< 100 nM
Cc1ccc(Oc2cccc(C(=O)NCC(=O)N3C[C@H](OC(F)F)C[C@H]3C(=O)NCc3cc4c(s3)CNCC4)c2)c(F)c1 [Compound 339, (2S,4R)-4-(difluoromethoxy)-1-((3-(2-fluoro-4-methylphenoxy)benzoyl)glycyl)-N-((4,5,6,7-tetrahydrothieno[2,3-c]pyridin-2-yl)methyl) pyrrolidine-2-carboxamide]	< 100 nM
O=C(NCC(=O)N1CC2(C[C@H]1C(=O)NCc1cc3cncc(Cl)c3[nH]1)OCCO2)c1ccc2c(c1)Oc1ccccc1S2 [Compound 53, (S)-N-((7-chloro-1H-pyrrolo[3,2-c]pyridin-2-yl)methyl)-7-((phenoxathiine-3-carbonyl)glycyl)-1,4-dioxa-7-azaspiro[4.4]nonane-8-carboxamide]	> 1000 nM
C[C@@H](NC(=O)[C@@H]1C[C@]2(C)C[C@@H]2N1C(=O)CNC(=O)c1ccc2c(c1)Oc1ccccc1S2)c1cc2cnccc2[nH]1 [Compound 130, (1S,3S,5S)-N-((R)-1-(1H-pyrrolo[3,2-c]pyridin-2-yl)ethyl)-5-methyl-2-((phenoxathiine-3-carbonyl)glycyl)-2-azabicyclo[3.1.0]hexane-3-carboxamide]	< 100 nM
Cn1c(CNC(=O)[C@@H]2CC3(CN2C(=O)CNC(=O)c2ccc4c(c2)Oc2ccccc2S4)OCCO3)cc2cnccc21 [Compound 46, (S)-N-((1-methyl-1H-pyrrolo[3,2-c]pyridin-2-yl)methyl)-7-((phenoxathiine-3-carbonyl)glycyl)-1,4-dioxa-7-azaspiro[4.4]nonane-8-carboxamide]	> 1000 nM
